According to patent US10851096B2, “Aryl and heteroaryl amides for use as anti-proliferative, anti-thrombotic, and anti-viral agents” (Rutgers, The State University of New Jersey, priority 2016, dated 2020):

Experiments:
[1] = biological target: T1, native Axl (Homo sapiens, UniProt P30530); assay: Gas6-inducible phosphorylation of native Axl in H1299 cells (immunoblot); format: cell-based; conditions: H1299 lung cancer cell line, FIG. 5B
T1 construct: Gas6-inducible phosphorylation of native Axl (pAxl); endogenous in cells; host or cells: MDA-MB-231
T1 sequence (P30530 26-894): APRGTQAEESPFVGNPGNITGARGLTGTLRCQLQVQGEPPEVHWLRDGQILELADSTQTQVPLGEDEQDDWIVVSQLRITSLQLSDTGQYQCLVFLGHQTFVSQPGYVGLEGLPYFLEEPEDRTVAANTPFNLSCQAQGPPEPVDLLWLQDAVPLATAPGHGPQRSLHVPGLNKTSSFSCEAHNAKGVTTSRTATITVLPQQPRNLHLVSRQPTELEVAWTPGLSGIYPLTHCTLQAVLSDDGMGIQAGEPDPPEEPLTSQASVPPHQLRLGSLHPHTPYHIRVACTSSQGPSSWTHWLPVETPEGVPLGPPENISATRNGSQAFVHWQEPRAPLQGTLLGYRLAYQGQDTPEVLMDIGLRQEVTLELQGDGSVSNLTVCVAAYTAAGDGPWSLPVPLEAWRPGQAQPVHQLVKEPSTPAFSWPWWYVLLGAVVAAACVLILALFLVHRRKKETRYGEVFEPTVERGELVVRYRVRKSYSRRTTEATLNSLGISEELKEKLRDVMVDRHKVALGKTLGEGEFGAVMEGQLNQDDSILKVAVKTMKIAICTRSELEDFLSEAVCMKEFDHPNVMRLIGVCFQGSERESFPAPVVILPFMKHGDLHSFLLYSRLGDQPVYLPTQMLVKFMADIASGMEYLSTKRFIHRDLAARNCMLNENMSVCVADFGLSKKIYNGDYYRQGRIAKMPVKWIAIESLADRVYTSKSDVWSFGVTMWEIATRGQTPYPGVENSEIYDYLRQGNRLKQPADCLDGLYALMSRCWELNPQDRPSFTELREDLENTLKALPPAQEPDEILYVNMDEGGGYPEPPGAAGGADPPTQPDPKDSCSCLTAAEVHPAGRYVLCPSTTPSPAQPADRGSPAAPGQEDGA
Procedure: (§1) Stable hAxl/IFN-γR1 CHO reporter cell lines (containing human Axl extracellular domains and transmembrane and intracellular domains of human IFN-γR1) were serum starved for 5 hrs±small molecule inhibitors and then stimulated with human Gas6 conditioned media±small molecule inhibitors for 30 minutes. For H1299 human non-small cell lung carcinoma and MDA-MB-231 human breast adenocarcinoma cell lines, the cells were serum starved overnight±small molecule inhibitors and stimulated with human Gas6 conditioned media±small molecule inhibitors for 30 minutes. Whole cell lysates of hAxl/IFN-γR1, H1299 and MDA-MB-231 cells were prepared using HNTG buffer (20 mM HEPES, pH 7.5, 150 mM NaCl, 10% glycerol, 1% Triton X-100, 1 mM PMSF, 1 mM Na3VO4, 10 mM Na2MoO4, 1 mM EDTA, 10 mM NaF and 20 μg/mL aprotinin). The resulting lysates were resolved on SDS-PAGE gel and immunoblotted with respective antibodies.
Immunoblot data were obtained within a linear range of exposure, and intensities were quantified by ImageJ. The levels of hAxl/IFN-γR1 cells lines activation were measured by pSTAT1 whereas the levels of H1299 and MDA-MB-231 cell lines activation were measured by pAxl signal intensities. Blots were normalized to intensities of respective β-actin or GAPDH protein loading controls. […]

[2] = tested on: H1299 cells; assay: Gas6-inducible motility through transwell pore, H1299; format: cell-based, human; conditions: pretreatment of H1299 cells
[3] = tested on: normal (non-cancerous) cells; assay: Cytotoxicity assays using normal (non-cancerous) cells; format: cell-based
[4] = tested on: Akt phosphorylation; assay: Gas6-inducible Akt phosphorylation in Axl-positive cancer cell lines; format: cell-based, human; conditions: pre-treatment with 10 μM
Procedure: as §1

[5] = tested on: H1299 cells; assay: Real-time migration assay (RTCA DP Xcelligence), H1299; format: cell-based, human; conditions: Gas6-inducible H1299 cells
Procedure: (§2) H1299 and MDA-MB-231 cells lines were seeded in complete medium and allowed to attain ˜80% confluence and then serum starved overnight in medium containing 0.5% FBS. The cells were then detached by Accutase (Sigma), counted and resuspended in serum-free RPMI-1640 medium. In the lower chamber of the CIM plate, 1×RPMI-1640 containing 10% FBS was added as a chemoattractant. In the top chamber, 50 μl of 1×RPMI-1640 was added to all wells. Both chambers were assembled, loaded in the Xcelligence system, and run for 30 min for equilibration or background readings. One hundred microliters of each cell line suspended in 1×RPMI-1640 (40,000 cells/100 μl)±Gas6±small molecule inhibitors then were added in triplicates in upper chamber wells. Readings for changes in the cell index (CI) were taken every 10 min for 24 h and migration was shown as a change in cell index versus time.

[6] = Pharmacokinetics in mice (half-life, bioavailability); format: in vivo, mouse; conditions: for half-life: mouse, in vivo, read-out: half-life (t1/2) (converted)
[7] = biological target: T2, hAxl/IFN-γR1 (Homo sapiens, UniProt P30530); assay: hAxl/IFN-γR1 CHO reporter cell line assay, Gas6-induced activation (pSTAT1 immunoblot); format: cell-based; conditions: for apparent EC50, anti-Axl activity: Axl reporter system; for IC50: dose-response, FIG. 2A/2B, read-out: IC50, Axl-inhibitory activity on hAxl/IFN-γR1 reporter cell lines
T2 construct: containing human Axl extracellular domains and transmembrane and intracellular domains of human IFN-γR1; human IFN-γR1 transmembrane and intracellular domains (fusion partner); expressed in transfected cells
T2 sequence (P30530 26-451 limits assumed): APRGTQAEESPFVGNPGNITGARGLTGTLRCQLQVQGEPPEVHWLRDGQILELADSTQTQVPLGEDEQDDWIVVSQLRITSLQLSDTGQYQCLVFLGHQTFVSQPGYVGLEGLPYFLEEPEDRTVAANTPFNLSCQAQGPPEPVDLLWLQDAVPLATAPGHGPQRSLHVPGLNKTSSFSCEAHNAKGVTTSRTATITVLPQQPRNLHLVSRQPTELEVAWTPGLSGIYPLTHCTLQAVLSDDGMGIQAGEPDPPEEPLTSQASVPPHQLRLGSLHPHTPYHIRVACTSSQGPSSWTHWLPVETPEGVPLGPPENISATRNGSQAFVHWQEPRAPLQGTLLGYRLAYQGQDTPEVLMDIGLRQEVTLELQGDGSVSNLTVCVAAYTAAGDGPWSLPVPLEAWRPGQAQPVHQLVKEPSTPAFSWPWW
Procedure: Stable HEK 293 cells secreting human Gas6 (clone 7.4.1) were allowed to achieve 70% confluence in a 10-cm plate. The complete medium with 10% FBS was then changed into serum free media in the presence of 10 µg/mL vitamin K1 (Phytonadione injectable emulsion from Hospira). After 72 hours, the Gas6 conditioned medium was collected, and validated for the presence of Gas6 and γ-carboxylation (by immunoblot) and activity of Gas6 (via activation of pSTAT1 in hAxl/γR1 cells).
as §1
Immunoblot data were obtained within a linear range of exposure, and intensities were quantified by ImageJ. The levels of hAxl/IFN-γR1 cells lines activation were measured by pSTAT1 whereas the levels of H1299 and MDA-MB-231 cell lines activation were measured by pAxl signal intensities. Blots were normalized to intensities of respective β-actin or GAPDH protein loading controls. The levels of pSTAT1 or pAxl activation induced by Gas6±small molecule inhibitors were plotted as a fold of enhancement or reduction over intensities induced by Gas6 alone.

[8] = tested on: MDA-MB-231 cells; assay: Real-time migration assay (RTCA DP Xcelligence), MDA-MB-231; format: cell-based, human; conditions: Gas6-inducible MDA-MB-231 cells
Procedure: as §2

Cc1noc(C)c1CSc1ccccc1C(=O)N1CCN(c2cccc(C(F)(F)F)c2)CC1 [1I]
inhibition of activation (phosphorylation) of Axl [1]: potent inhibition
Gas6-inducible motility through an 8 μm pore [2]: strongly suppressed
cellular toxicity [3]: no discernible cellular toxicity
Gas6-inducible Akt phosphorylation [4]: abrogated
motility (real-time, cell index) [5]: suppressed motility
bioavailability [6]: good bioavailability
half-life [6]: ~8 h
remaining activity at 10 µM [7]: 20%
apparent EC50, anti-Axl activity [7]: low micro-molar range
IC50 [7]: 1150 nM
motility (real-time, cell index) [8]: suppressed motility

Cc1cc(CSc2ccccc2C(=O)NCCNc2ccc(C(F)(F)F)cc2[N+](=O)[O-])on1 [1Q]
inhibition of activation (phosphorylation) of Axl [1]: potent inhibition
Gas6-inducible motility through an 8 μm pore [2]: strongly suppressed
cellular toxicity [3]: no discernible cellular toxicity
Gas6-inducible Akt phosphorylation [4]: abrogated
motility (real-time, cell index) [5]: suppressed motility
bioavailability [6]: good bioavailability
half-life [6]: ~8 h
remaining activity at 10 µM [7]: 10%
apparent EC50, anti-Axl activity [7]: low micro-molar range
IC50 [7]: 1250 nM
motility (real-time, cell index) [8]: suppressed motility
